This is an account of results in BindingDB's records for doi:10.1016/j.bmcl.2014.01.058 (Novartis Institutes For Biomedical Research, 2014).

Assay [1] in a line: Inhibition of RSK2 in mouse BAF cells assessed as YB1 phosphorylation at Ser102 by electrochemiluminescence assay.
A short description of assay [2]: Inhibition of recombinant full length RSK2 (unknown origin) using biotin-AGAGRSRHSSYPAGT-OH as substrate after 150 mins.

On to `COc1ccccc1-c1cccc2nc(Nc3cc(OC)c(OC)c(OC)c3)oc12`, for which the IC50 – broadly, the concentration that gives 50% inhibition – in assay [1] was 5.7 µM; in assay [2], 0.02 µM.

As for `COc1cccc(F)c1-c1cccc2nc(N)oc12`, the IC50 was over 20 µM in assay [1] and 2.8 µM in assay [2].

For the compound `COc1cc(Nc2nc3cccc(-c4c(F)cccc4OC)c3o2)cc(OC)c1`, the IC50 in assay [1] was 17.2 µM; in assay [2] it was 0.21 µM.

In the case of `COc1cccc(F)c1-c1cccc2nc(NC3CCCCC3)oc12`, the results for the IC50 in assay [1] and in assay [2] were over 20 µM and 0.62 µM, respectively.

For the compound `COc1cccc(F)c1-c1cccc2nc(Nc3cccc(S(N)(=O)=O)c3)oc12`, the IC50 in assay [1] was over 20 µM; in assay [2], 0.34 µM.

As to `COc1cc(Nc2nc3cccc(-c4cccc5[nH]cnc45)c3o2)cc(OC)c1OC`, the 50% inhibitory concentration (IC50) in assay [1] turned out to be 0.8 µM; in assay [2], 0.004 µM.

In the case of `COc1cc(Nc2nc3cccc(-c4cccc5cn[nH]c45)c3o2)cc(OC)c1OC`, the IC50 is 5.7 µM in assay [1] and 0.05 µM in assay [2].

On to `COc1cccc(F)c1-c1cccc2nc(Nc3ccccc3)oc12`, for which the results for the IC50 in assay [1] and in assay [2] were over 20 µM and 1 µM, respectively.

Turning to `COc1cccc(Nc2nc3cccc(-c4c(F)cccc4OC)c3o2)c1`, the half-inhibitory concentration (IC50) stood at 15.4 µM in assay [1] and 0.41 µM in assay [2].

On to `COc1cc(Nc2nc3cccc(-c4ccccc4OC(F)(F)F)c3o2)cc(OC)c1OC`, for which the results for the concentration for half-maximal inhibition (IC50) in assay [1] and in assay [2] were over 20 µM and 4 µM, respectively.

As to `COc1cc(Nc2nc3cccc(-c4c(F)cccc4OC(C)C)c3o2)cc(OC)c1OC`, the IC50 in assay [1] was over 20 µM; in assay [2], 0.97 µM.

For `COc1ccc(Nc2nc3cccc(-c4c(F)cccc4OC)c3o2)cc1N`, the IC50 in assay [1] is over 20 µM; in assay [2], 0.22 µM.

Consider `COc1cc(C)ccc1-c1cccc2nc(Nc3cc(OC)c(OC)c(OC)c3)oc12`, for which the figures for the IC50 in assay [1] and in assay [2] were 9.7 µM and 0.04 µM, respectively.

Turning to `COc1cc(Nc2nc3cccc(-c4ccccc4F)c3o2)cc(OC)c1OC`, the IC50 is 18 µM in assay [1] and 0.22 µM in assay [2].

With `COc1ccc(Nc2nc3cccc(-c4c(F)cccc4OC)c3o2)cc1`, the IC50 in assay [1] was over 20 µM; in assay [2], 1.4 µM.

With `COc1cc(Nc2nc3cccc(-c4c(OC)cccc4OC)c3o2)cc(OC)c1OC`, the half-maximal inhibitory concentration (IC50) was over 20 µM in assay [1] and 1.2 µM in assay [2].

Take `CCOc1cccc(Nc2nc3cccc(-c4c(F)cccc4OC)c3o2)c1`: the concentration for half-maximal inhibition (IC50) is over 20 µM in assay [1] and 0.73 µM in assay [2].

With `COc1cccc(F)c1-c1cccc2nc(NC3CCOCC3)oc12`, the IC50 in assay [1] is over 20 µM; in assay [2], 3.2 µM.

As for `COc1ccc(F)cc1-c1cccc2nc(Nc3cc(OC)c(OC)c(OC)c3)oc12`, the IC50 in assay [1] was 3.7 µM; in assay [2], 0.04 µM.

In the case of `COc1cccc(Nc2nc3cccc(-c4c(F)cccc4OC)c3o2)n1`, the IC50 in assay [1] is over 20 µM; in assay [2] it was 0.62 µM.

`CCOc1cccc(F)c1-c1cccc2nc(Nc3cc(OC)c(OC)c(OC)c3)oc12`: the IC50 in assay [1] worked out at 10.8 µM; in assay [2] it was 0.49 µM.

As to `COc1ccc(Nc2nc3cccc(-c4c(F)cccc4OC)c3o2)cc1OC`, the values for the concentration for half-maximal inhibition (IC50) in assay [1] and in assay [2] were 6.5 µM and 0.07 µM, respectively.

`COc1ccc(Nc2nc3cccc(-c4c(F)cccc4OC)c3o2)cc1O[C@H]1CCNC1`: the IC50 in assay [1] is 6.3 µM; in assay [2], 0.01 µM.

For `COc1cc(Nc2nc3cccc(-c4ccccc4-c4cn[nH]c4)c3o2)cc(OC)c1OC`, the results for the IC50 in assay [1] and in assay [2] were over 20 µM and 9.3 µM, respectively.

As for `COc1ccc(C)cc1-c1cccc2nc(Nc3cc(OC)c(OC)c(OC)c3)oc12`, the concentration for half-maximal inhibition (IC50) in assay [1] is 14.5 µM; in assay [2], 1.1 µM.

Consider `COc1cc(Nc2nc3cccc(-c4nc(C)[nH]c4C)c3o2)cc(OC)c1OC`, for which the concentration for half-maximal inhibition (IC50) in assay [1] was found to be 19.8 µM; in assay [2], 0.56 µM.
